#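 48-hour exposure; five concentrations; linearly interpolated endpoints. GI50 = concentration required for 50% inhibition of growth.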 Activity calls are given as the source filed them. No stated cut-off is given here; in the data, active = GI50 up to about 1.1 µM and inactive = higher.
# What was measured:
# Experiment in all cases: DTP human tumour cell line panel, 48 h
# [1] = system: MDA-MB-435
# [2] = system: LOX IMVI
# [3] = system: SR
# [4] = system: SF-268
# [5] = system: OVCAR-3
# [6] = system: TK-10
# [7] = system: HOP-62
# [8] = system: OVCAR-5
# [9] = system: NCI/ADR-RES
# [10] = system: A549
# [11] = system: IGROV-1
# [12] = system: COLO 205
# [13] = system: MDA-MB-231
# [14] = system: CCRF-CEM
# [15] = system: SW-620
# [16] = system: UACC-62
# [17] = system: CAKI-1
# [18] = system: UO-31
# [19] = system: HCC 2998
# [20] = system: HL-60
Compound,GI50 [1],GI50 [2],GI50 [3],GI50 [4],GI50 [5],GI50 [6],GI50 [7],GI50 [8],GI50 [9],GI50 [10],GI50 [11],GI50 [12],GI50 [13],GI50 [14],GI50 [15],GI50 [16],GI50 [17],GI50 [18],GI50 [19],GI50 [20]
COc1c(C)c(C/C=C(\C)CC/C=C(\C)CC/C=C(\C)CCC=C(C)C)c(OC)c2ccccc12,> 100 µM (inactive),70 µM (inactive),35.7 µM (inactive),> 100 µM (inactive),> 100 µM (inactive),> 100 µM (inactive),> 100 µM (inactive),> 100 µM (inactive),> 100 µM (inactive),> 100 µM (inactive),37.2 µM (inactive),> 100 µM (inactive),> 100 µM (inactive),28.5 µM (inactive),> 100 µM (inactive),> 100 µM (inactive),> 100 µM (inactive),> 100 µM (inactive),,
CCCSc1ccc2[nH]c(N3C(=O)/C(=C/c4ccc(O)c(OC)c4)N=C3c3ccccc3)cc2c1,2.69 µM (inactive),7.14 µM (inactive),1.34 µM (inactive),9.16 µM (inactive),6.7 µM (inactive),,0.0424 µM (active),4.07 µM (inactive),3.1 µM (inactive),,4.2 µM (inactive),4.27 µM (inactive),,7.82 µM (inactive),5.61 µM (inactive),3.07 µM (inactive),14.7 µM (inactive),12.8 µM (inactive),2.8 µM (inactive),2.82 µM (inactive)
C(/c1ccco1)=c1/nc(-c2ccccc2)n2c1nc1ccccc12,14.4 µM (inactive),42.4 µM (inactive),11.4 µM (inactive),31.4 µM (inactive),9.06 µM (inactive),34.8 µM (inactive),2.05 µM (inactive),69.8 µM (inactive),23.4 µM (inactive),50 µM (inactive),11.3 µM (inactive),98.9 µM (inactive),16.5 µM (inactive),16.6 µM (inactive),21.7 µM (inactive),63.1 µM (inactive),5.51 µM (inactive),67 µM (inactive),,> 100 µM (inactive)
NC(=O)C(=CN1CC(=O)NC1=S)C(N)=O,> 100 µM (inactive),> 100 µM (inactive),,> 100 µM (inactive),> 100 µM (inactive),> 100 µM (inactive),> 100 µM (inactive),> 100 µM (inactive),> 100 µM (inactive),> 100 µM (inactive),> 100 µM (inactive),> 100 µM (inactive),> 100 µM (inactive),,> 100 µM (inactive),> 100 µM (inactive),> 100 µM (inactive),> 100 µM (inactive),> 100 µM (inactive),> 100 µM (inactive)
CCc1ccc(Nc2cc(=O)[nH]c(SCc3ccccc3)n2)cc1,> 100 µM (inactive),> 100 µM (inactive),> 100 µM (inactive),73.1 µM (inactive),39.4 µM (inactive),> 100 µM (inactive),32.5 µM (inactive),> 100 µM (inactive),74.1 µM (inactive),> 100 µM (inactive),> 100 µM (inactive),> 100 µM (inactive),4.17 µM (inactive),> 100 µM (inactive),> 100 µM (inactive),48.8 µM (inactive),> 100 µM (inactive),> 100 µM (inactive),,> 100 µM (inactive)
CC12CCC3c4cc(Br)c(O)c(Br)c4CCC3C1CCC2O (configuration not stated),4.23 µM (inactive),18.1 µM (inactive),,19.8 µM (inactive),18.9 µM (inactive),19.8 µM (inactive),,25.7 µM (inactive),18.5 µM (inactive),19.5 µM (inactive),15.8 µM (inactive),25.2 µM (inactive),13.3 µM (inactive),24.3 µM (inactive),14.2 µM (inactive),14 µM (inactive),15.6 µM (inactive),15.8 µM (inactive),12.7 µM (inactive),14.8 µM (inactive)
S=C1CC(c2ccc(Cl)cc2)Sc2ccccc2N1 (configuration not stated),87.1 µM (inactive),40.8 µM (inactive),33.3 µM (inactive),24.7 µM (inactive),23.1 µM (inactive),46.7 µM (inactive),16.4 µM (inactive),> 100 µM (inactive),32.4 µM (inactive),55.5 µM (inactive),43.4 µM (inactive),71.9 µM (inactive),30.4 µM (inactive),51.9 µM (inactive),,31.6 µM (inactive),41.4 µM (inactive),> 100 µM (inactive),,30.5 µM (inactive)

# — ChEMBL document CHEMBL1201862, “PubChem BioAssay data set” (2004)
